Experimental data as given in a melting point compilation (Tetko et al.; mined from patent text by program, amines drawn as free bases though some values may be those of a salt).

| SMILES | melting point |
| --- | --- |
| Cc1nc(C=NN(C)C)c2n1-c1ccc(Cl)cc1C(c1ccccc1Cl)=NC2 | 238 to 242 °C |
| CCOC(Nc1ccccc1)(OCC)c1ccnc(C(=O)c2ccc(Cl)c(Cl)c2)c1 | 113 to 114 °C |
| CCSC1=NCC(=O)N1c1ccccc1 | 79 to 81 °C |
| Cc1nccc(C(N)=O)c1[N+](=O)[O-] | 203 to 204 °C |
| CON=C1C=CC=CC1CC(=O)OC (configuration not stated) | 96 to 97 °C |
| CCOC(=O)c1nc(C)n2c1CN=C(c1ccccc1Cl)c1cc(Cl)ccc1-2 | 214 to 215 °C |
| CC1(C)C(=O)NC(=O)c2c1ccc(NC(=O)c1ccccc1)c2[N+](=O)[O-] | > 270 °C |
| Cc1cc(C)c(O)c(C(CCCC(c2cc(C)cc(C)c2O)c2cc(C)cc(C)c2O)c2cc(C)cc(C)c2O)c1 | 236 to 242 °C |
| O=C(c1ccc(OC2CCCCC2N2CCCC2)c(F)c1)c1c(-c2ccc(OCCN3CCCC3)cc2)sc2cc(OCc3ccccc3)ccc12 (configuration not stated) | 47 to 51 °C |
| NC(=O)CN(CCCc1ccc(F)cc1)C1CCC(c2ccc3[nH]c(=O)oc3c2)CC1 (configuration not stated) | 266 to 270 °C |
| Cc1ncncc1C(=O)Nc1cnc(-n2nc(C(F)(F)F)cc2C2CC2)nc1 | 201 to 203 °C |
| CS(=O)(=O)c1cc([N+](=O)[O-])c(C(N)=O)cc1N1CC1 | 222 to 224 °C |
| CC(C)(C)OC(=O)CCS(=O)(=O)c1ccc(Br)cc1 | 105 °C |
| Cc1cc(Cc2cc(C(F)(F)F)cc(C(F)(F)F)c2)ccc1NC(=O)c1cccc(Cl)c1C(=O)NC(C)CS(C)=O (configuration not stated) | 162 to 165 °C |
| Cc1cccc(C)c1OC(=O)[C@H](C)[C@@H](O)C(C)C | 58.5 to 59.5 °C |
| CCOC(=O)NC(=O)Nc1ccc(Cl)cc1C(=O)c1ccccc1F | 208 to 209 °C |
| CCCCCCc1ccc(-c2ccc(COC(c3ccccc3)(c3ccccc3)c3ccccc3)cc2[N+](=O)[O-])cc1 | 86 to 87 °C |
| C=CCN1CC(C)N(C(c2cccc(O)c2)c2ccc(C(=O)N(CC)CC)s2)CC1C (configuration not stated) | 113 to 116 °C |
| O=[N+]([O-])c1c(Br)nn(CCO)c1NCCO | 132 to 134 °C |
| O=C(Nc1nc(CN2CCC(c3c[nH]c4ccccc34)CC2)cs1)C1CC1 | 120 to 132 °C |

| SMILES | melting point |
| --- | --- |
| C(CCc1cncn1Cc1ccccc1)=C(c1ccccc1)c1ccccc1 | 161 to 168 °C |
| CCCc1ccc(OCCC(C)C)c2c(=O)cc(-c3nnn[nH]3)oc12 | 199 to 200 °C |
| O=C(O)c1ccc(-c2nccs2)nc1 | > 300 °C |
| CC(C)COc1ccc(-c2ccc3nnn(Cc4ccc5ncccc5c4)c3n2)cc1F | 115 to 157 °C |
| CCOC(=O)c1c(C)nn(-c2ccccn2)c1N | 80 to 81 °C |
| O=C(c1ccccc1)c1cc2ccncc2[nH]1 | 245 to 247 °C |
| CC(C)(C)C1=CC(=S)N=N1 | 147 to 148 °C |
| CC(CCC(=O)O)(c1ccc(OCc2ccc3ccccc3n2)c(Cl)c1)c1ccc(OCc2ccc3ccccc3n2)c(Cl)c1 | 91 to 94 °C |
| CCCCCCCCCCCCCCCCCCNC(=O)C(=O)Nc1ccc(O)cc1 | 192 °C |
| COc1ccc2nc(NC(=O)C(CC3CCCC3)c3ccc(S(=O)(=O)CCc4ccccc4)cc3)sc2n1 (configuration not stated) | 169 to 172 °C |
| O=c1[nH]c(=S)c(C2c3ccccc3C=Cc3ccccc32)cn1-c1ccc(Sc2n[nH]c(C(F)(F)F)n2)nn1 | 165 °C |
| COc1cc(C)nc(NC(=O)NS(=O)(=O)N(C)S(C)(=O)=O)n1 | 118 to 120 °C |
| O=C(O)CCc1c(C(=O)O)[nH]c2cc(I)ccc12 | 230 to 232 °C |
| Nc1ccc(CCC(=O)Nc2cnc3ccccc3c2)cc1[N+](=O)[O-] | 220 °C |
| CCC(=O)c1cnc2c(c1)oc(=O)n2C | 110 to 112 °C |
| O=C(c1ccc(F)cc1)c1cc2ccsc2s1 | 113 °C |
| N#CCc1cnc(Cl)c(Cl)c1 | 72 to 75 °C |
| O=C(Nc1ccc2c(c1)OC=C1CN(C(=O)OCc3ccccc3)C=CN12)OCc1ccccc1 | 118 to 120 °C |
| OCCCCCCCCCCCCCCC(O)CNCCO (configuration not stated) | 103 °C |
| CCC1N=C(c2ccccc2Cl)c2cc(CCC(=O)OC)sc2-n2c(C)nnc21 (configuration not stated) | 126 to 127 °C |

| SMILES | melting point |
| --- | --- |
| CN1Cc2c(CO)ncn2-c2ccccc2C1=O | 219 to 221 °C |
| COc1cc(OCc2ccccn2)ccc1/C=C/C(=O)CC(=O)/C=C/c1c[nH]c2ccc(F)cc12 | 183 to 186 °C |
| NC(=O)c1cccc(C(N)=O)c1[N+](=O)[O-] | 283 to 285 °C |
| Cc1ccc(-c2nc(COc3ccc(CCCCn4ccnc4)cc3)cs2)s1 | 81 to 82 °C |
| CNC(=C[N+](=O)[O-])NCCSCc1nccc(NC(N)=NCC(F)(F)F)n1 | 154 to 157 °C |
| CN1CCN(S(=O)(=O)CCCO)CC1 | 90 to 93 °C |
| O=S(=O)(c1nc(-c2ccc(Cl)c(Cl)c2)c(-c2cccs2)[nH]1)C(F)(F)C(F)F | 158 to 160 °C |
| CC(C)(C)S(=O)(=O)NC(=O)c1cccc([N+](=O)[O-])c1 | 220 °C |
| CSC(Nc1cccc(C#N)c1)=C(C#N)S(=O)(=O)c1ccc(Cl)cc1 | 168 to 170 °C |
| Cc1ccc(O)c(C(=O)OCC=Cc2ccccc2)c1 | 178 to 179 °C |
| O=S(N=Cc1ccccc1)c1nccnc1Cl (configuration not stated) | 113 to 114 °C |
| Nc1nc(-c2ccccc2)c(-c2ccnc(Nc3ccccc3)n2)s1 | 196 to 197 °C |
| N[C@H]1CC[C@@H](N2CCNC2=O)CC1 | 121 to 123 °C |
| O=C(c1ccc(Cl)cc1)c1ccc([N+](=O)[O-])cc1 | 97 to 98 °C |
| CC(C)(C)NC(=O)CN1C(=O)[C@@H](CNC(=O)Nc2cccc(Cl)c2)C[C@H](c2ccccc2)c2ccccc21 | 156 to 170 °C |
| CCCc1c(CSc2nnc(SCc3ccc(OCC(=O)O)cc3)s2)ccc(C(C)=O)c1O | 131 to 134 °C |
| CCOC(=N)C1(O)CCc2ccccc21 (configuration not stated) | < 20 °C |
| CCCc1c(C(=O)NCc2ccc(-c3ccc(OCC(=O)O)c(Br)c3)cc2)cnn1-c1ccccc1 | 204 to 206 °C |
| Clc1ccc(C#Cc2ccc(Br)cc2)cc1 | 179 °C |

Other lines, results leading:

| melting point | SMILES |
| --- | --- |
| 58 to 61 °C | COc1cc2c(c(OC)c1)C(=O)CCC2 |
| 203 to 208 °C | Cc1coc(C)c1-c1nc2ccc(C(=O)c3ccccc3)cc2[nH]1 |
| 159 to 161 °C | O=C(O)c1cccc(CCc2n[nH]c3c2c(=O)n(-c2ccccc2)c2ncccc32)c1 |
| 156 °C | O=C1CC(CI)C(=O)N1c1ccc(F)cc1 (configuration not stated) |
| 123 °C | CNC(=O)c1ccc(F)c2c1CC(N(CCCCc1c[nH]c3ccc(F)cc13)C1CCC1)CO2 (configuration not stated) |
| 156 to 158 °C | COc1cc(C2=CCN(S(=O)(=O)C(C)(C)C(=O)NO)CC2)ccc1-c1ccccc1 |
| 169 to 171 °C | CC1Cc2c(c(Cl)cc(F)c2N2C(=O)C3=C(CCCC3)C2=O)O1 (configuration not stated) |
| 158 to 159 °C | CC(=O)NC[C@H]1CN(c2ccc3c(c2)CCC(C)N3)C(=O)O1 (some centres not stated) |
| 151 to 152 °C | COc1cc(OC(=O)C(C)C)c2c(=O)c(OC)c(-c3ccc(OC(=O)C(C)(C)C)c(OC)c3)oc2c1 |
| 111 to 112 °C | CCC(=O)Oc1ccc(S(=O)(=O)N2c3ccccc3-c3ccc(F)cc3C2CC)cc1 (configuration not stated) |
| 155 °C | O=C(c1ccccc1[N+](=O)[O-])N1CCCc2ccccc21 |
| 223 to 225 °C | COC(=O)CCCCOc1ccc2nc3[nH]c(=O)n(C)c3cc2c1 |
| 175 to 180 °C | CC(C)OC(=O)Cn1c(=O)n(C)c(=O)n(-c2cc(N3C(=O)C4CS(=O)CCN4C3=O)c(F)cc2Cl)c1=O (configuration not stated) |
| 171 to 172 °C | Cc1c(NC(=O)c2ccc(-c3ccc4c(c3)OCO4)cc2)ccc2cc(CN3CCCC3)cnc12 |
| 194 to 196 °C | CC(=O)Oc1ccc(-n2c(-c3ccccc3)cc3c2CCc2ccccc2-3)cc1C(=O)O |
| 140 °C | Cc1ccc(C(=O)O)c2c1CCCO2 |
| 236 to 237 °C | Cc1cc2c3c(ccc(N4CCCC4)c3c1)C(=O)N(O)C2=O |
| 131 to 133 °C | Cc1ccc2c(c1)c(Cc1nc3c(F)c(F)cc(F)c3s1)cn2CC(=O)O |
| 152 to 153 °C | COc1ccc(C2=NOC3(CCOC3=O)C2)cc1OC1CCCC1 (configuration not stated) |

| melting point | SMILES |
| --- | --- |
| 82 to 86 °C | C=Cc1ccnc(-c2cc(C)ccn2)c1 |
| 191 to 192 °C | CNc1cc(Br)nc(S(=O)(=O)c2ccc([N+](=O)[O-])cc2)c1 |
| 233 to 240 °C | Cc1cc(C)n(-c2nc(Nc3cccc(C(F)(F)F)c3)c3ccccc3n2)n1 |
| 258 to 259 °C | Cc1ccc2nc(N3CCN(c4ncccc4Cl)CC3)[nH]c2c1 |
| 191 to 192 °C | CC1(C)C(=O)N(c2ccnc(NC(=O)NCc3ccccn3)c2)c2ccccc21 |
| 194 to 196 °C | Cc1cc(N2CCCC(O)C2)c(S(C)(=O)=O)cc1C(=O)N=C(N)N (configuration not stated) |
| 212 to 213 °C | CCCCCCCC(=O)N1CCN(c2ccc3c(c2)N2CCN=C2C(c2ccccc2)=[N+]3[O-])CC1 |
| 118 °C | COc1nc(-c2cccc(Cl)c2)c2cc(C(=O)N(C)OC)ccc2n1 |
| 231 to 232 °C | CC1(C)C(=O)Oc2ccc3cc(C(N)=O)c(Cn4cncn4)cc3c21 |
| 220 to 221 °C | Cc1cc(OCc2cccc(C(=O)O)c2)c([N+](=O)[O-])cc1S(=O)(=O)N(C)C |
| 189 to 190 °C | Cc1noc(NC(=O)N2CCN(c3cc(-c4ccccc4F)ncn3)CC2)c1C |
| 248 to 249 °C | COc1ccc2[nH]c(=O)nc(C)c2c1OC |
| 156 to 157 °C | CCCc1nc2c(N)nc3ccccc3c2n1CCC(=O)OCC |
| 176 to 178 °C | O=C1c2cnc(N3CCN(Cc4ccccc4)CC3)nc2CN1C1CCCCC1 |
| 304 °C | COc1cc(C2=C(c3c(-c4ccccc4)[nH]c4ccccc34)C(=O)NC2=O)cc(OC)c1OC |
| 98 to 99 °C | CC(=O)N(CCCCN1CCN(c2csc3cc(F)ccc23)CC1)C(=O)C(C)C |
| 335 to 337 °C | Cc1nnc2nc(-c3ccccc3)c3cc(Cl)ccc3n12 |
| 88 to 90 °C | CC(=O)OCC1OC(n2cc(C3=C(n4ccnc4)C(=O)N(C)C3=O)c3cccnc32)C(OC(C)=O)C(OC(C)=O)C1OC(C)=O (configuration not stated) |
| 119 °C | COc1ccc(C=CC(=O)N2CCOCC2)cc1C(F)F |
